The text below walks through data of ChEMBL document CHEMBL5543110, “Engineering of a Biologically Active Glycosylated Glucagon-Like Peptide-1 Analogue” (J Med Chem, 2024).

Calls of active or inactive are those of the source. The rule behind the calls is not given here.

Assay [1] relates to Mus musculus. Description: Hypoglycemic activity in six hrs fasted C57BL6/J mouse assessed as improvement in glucose disposal at 30 nmol/kg, sc pre-administered with compound for 60 mins followed by glucose addition and measured upto 120 mins. Conditions: time <= 180.0 min. It counts as functional, organism-based.
Assay [2] deals with Mus musculus. Description: Hypoglycemic activity in six hrs fasted C57BL6/J mouse assessed as reduction in blood glucose level at 30 nmol/kg, sc measured upto 120 mins post injection by glucometer analysis. It counts as functional, organism-based.
Assay [3] concerns the target Glucagon-like peptide 1 receptor (Homo sapiens) (UniProt P43220). As to the kind of experiment: Agonist activity human GLP-1R stably expressed in HEK293-A cells assessed as […] in cAMP accumulation incubated for 30 mins by fluorescence resonance energy transfer analysis. Conditions: filed as agonist. It counts as functional, cell-based.

Chain of Glucagon-like peptide 1 receptor (Homo sapiens) (P43220 whole entry): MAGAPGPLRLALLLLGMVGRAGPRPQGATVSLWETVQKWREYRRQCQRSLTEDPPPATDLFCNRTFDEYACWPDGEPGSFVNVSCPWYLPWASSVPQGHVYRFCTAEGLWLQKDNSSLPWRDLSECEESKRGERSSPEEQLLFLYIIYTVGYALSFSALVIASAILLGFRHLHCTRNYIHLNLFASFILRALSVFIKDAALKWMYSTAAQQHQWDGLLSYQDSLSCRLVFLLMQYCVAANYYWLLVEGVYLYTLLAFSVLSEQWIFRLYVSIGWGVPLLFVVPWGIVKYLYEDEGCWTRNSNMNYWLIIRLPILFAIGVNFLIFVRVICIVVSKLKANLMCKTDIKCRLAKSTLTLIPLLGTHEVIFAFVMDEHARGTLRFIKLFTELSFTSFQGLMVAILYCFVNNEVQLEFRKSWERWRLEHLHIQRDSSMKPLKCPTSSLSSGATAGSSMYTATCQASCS

As for `CC[C@H](C)[C@H](NC(=O)[C@H](Cc1ccccc1)NC(=O)[C@H](CCC(=O)O)NC(=O)[C@H](CC(=O)N[C@@H]1O[C@H](CO)[C@@H](O[C@@H]2O[C@H](CO)[C@@H](O[C@@H]3O[C@H](CO[C@H]4O[C@H](CO)[C@@H](O)[C@H](O)[C@@H]4O[C@@H]4O[C@H](CO)[C@@H](O[C@@H]5O[C@H](CO[C@]6(C(=O)O)C[C@H](O)[C@@H](NC(C)=O)[C@H]([C@H](O)[C@H](O)CO)O6)[C@H](O)[C@H](O)[C@H]5O)[C@H](O)[C@H]4NC(C)=O)[C@@H](O)[C@H](O[C@@H]4O[C@H](CO)[C@H](O)[C@@H](O)[C@H]4O[C@@H]4O[C@H](CO)[C@@H](O[C@@H]5O[C@H](CO[C@]6(C(=O)O)C[C@H](O)[C@@H](NC(C)=O)[C@H]([C@H](O)[C@H](O)CO)O6)[C@H](O)[C@H](O)[C@H]5O)[C@H](O)[C@H]4NC(C)=O)[C@@H]3O)[C@H](O)[C@H]2NC(C)=O)[C@H](O)[C@H]1NC(C)=O)NC(=O)[C@H](C)NC(=O)[C@H](C)NC(=O)[C@H](CCC(N)=O)NC(=O)CNC(=O)[C@H](CCC(=O)O)NC(=O)[C@H](CC(C)C)NC(=O)[C@H](Cc1ccc(O)cc1)NC(=O)[C@H](CO)NC(=O)[C@H](CO)NC(=O)[C@@H](NC(=O)[C@H](CC(=O)O)NC(=O)[C@H](CO)NC(=O)[C@@H](NC(=O)[C@H](Cc1ccccc1)NC(=O)[C@@H](NC(=O)CNC(=O)[C@H](CCC(=O)O)NC(=O)C(C)(C)NC(=O)[C@@H](N)Cc1c[nH]cn1)[C@@H](C)O)[C@@H](C)O)C(C)C)C(=O)N[C@@H](C)C(=O)N[C@@H](Cc1c[nH]c2ccccc12)C(=O)N[C@@H](CC(C)C)C(=O)N[C@H](C(=O)N[C@@H](CCCNC(=N)N)C(=O)NCC(=O)N[C@@H](CCCNC(=N)N)C(=O)NCC(=O)O)C(C)C`, the result in assay [1], in assay [2] and in assay [3] was Active.
As for SEMAGLUTIDE, the result in assay [2] was Active.
